# US8106004B2, “Methods of inhibiting tumor cell aggressiveness using the microenvironment of human embryonic stem cells” (Children's Memorial Hospital, priority 2006, dated 2012)
# Legend:
# [1] = tested on: MDA-MB-231 breast carcinoma cells; test: In vivo tumor formation, orthotopic mouse model, MDA-MB-231 breast carcinoma cells; conditions: 500,000 MDA-MB-231 cells treated with Morpholino before injection
# Excerpt: (A) In vivo tumor formation in a mouse injected with MDA-MB-231 cells pre-exposed for 3 days to either a control matrix (Matrigel) or a matrix conditioned by hESCs (H9 CMTX) (n=10) (B) C81-61 cells, transfected with either an empty vector or a Nodal expression construct (n=5), and (C) MDA-MB-231 cells treated with either MO^Control or MO^Nodal (n=10). […] (D) The ratio of tumor cell proliferation to apoptosis for C8161 and MDA-MB-231 derived tumors, determined by immunohistochemical staining for Ki67 and terminal deoxynucleotidyl transferase biotin-dUTP nick-end labeling (TUNEL). Prior to injection into a mouse, C8161 and MDA-MB-231 cells were cultured for 3 days on control or hESC conditioned (H9 CMTX) matrices, or treated with MO^Nodal to knock down Nodal expression. […] Proliferation is indicated by Ki67 staining and apoptotic nuclei were detected with confocal microscopy as red staining localized to the nuclei of apoptotic C8161 or MDA-MB-231 cells. […]
# The effects of the hESC microenvironment on the in vivo tumorigenicity of melanoma and breast carcinoma cells were examined using orthotopic mouse models. […] The […] C81-61 melanoma cell line was unable to form palpable tumors when 500,000 cells were injected, and using gross observation and histology 5.5 weeks after inoculation, these tumor cells could not be detected at the site of injection. […]
# Nodal = test: Immunohistochemical analysis of Nodal staining in orthotopic C8161 tumors; assay type: in vivo, mouse; conditions: tumors from C8161 treated with anti-Nodal Morpholino, day 17
# C8161 melanoma cells = test: In vivo tumor cell proliferation-to-apoptosis ratio (Ki67/TUNEL), C8161 derived tumors; conditions: C8161 treated before injection into mouse
# Excerpt: (A) In vivo tumor formation in a mouse injected with MDA-MB-231 cells pre-exposed for 3 days to either a control matrix (Matrigel) or a matrix conditioned by hESCs (H9 CMTX) (n=10) (B) C81-61 cells, transfected with either an empty vector or a Nodal expression construct (n=5), and (C) MDA-MB-231 cells treated with either MO^Control or MO^Nodal (n=10). […] (D) The ratio of tumor cell proliferation to apoptosis for C8161 and MDA-MB-231 derived tumors, determined by immunohistochemical staining for Ki67 and terminal deoxynucleotidyl transferase biotin-dUTP nick-end labeling (TUNEL). Prior to injection into a mouse, C8161 and MDA-MB-231 cells were cultured for 3 days on control or hESC conditioned (H9 CMTX) matrices, or treated with MO^Nodal to knock down Nodal expression. […] (E) Immunohistochemical analysis of Ki67 expression (red/brown) and TUNEL staining in orthotopic melanoma (C8161) and breast carcinoma (MDA-MB-231) tumors. […] Proliferation is indicated by Ki67 staining and apoptotic nuclei were detected with confocal microscopy as red staining localized to the nuclei of apoptotic C8161 or MDA-MB-231 cells. […]
# In order to establish a mechanism by which exposure to the hESC microenvironment abrogates tumorigenicity, the effects of this treatment on the in vivo tumor cell proliferation-to-apoptosis ratio were analyzed. […]
substance,measurement,setting,value
"MO^Nodal: FITC-conjugated anti-sense Morpholino to Nodal, 5′-AAGCAGCACCTCCAGCCCTTATATC-3′ [SEQ ID NO: 20] (all phosphorodiamidate morpholino (PMO); FITC conjugated, position not given here)",tumorigenicity,[1],significant reduction
same,Nodal expression in tumors (IHC),Nodal,started to regain Nodal expression
same,ratio of proliferation to apoptosis,C8161 melanoma cells,decreased
